# Tested on: 695427-040-R-J1-PDC complex spheroids, viability percent T/C
# Assay: Anticancer human tumor 695427-040-R-J1-PDC patient-derived colon adenocarcinoma cell line growth inhibition [GQUAD]
# Details: for IC50: curve of first compound; for viability, T/C: stronger effect = lower value
# Text: DNA G-quadruplex Stabilizer Agents in Combinations in Complex Spheroids
# A high-throughput screen of multi-cell type tumor spheroids was designed to identify active combinations of DNA G-quadruplex stabilizer agents and targeted small molecules. Complex spheroids include a stromal component modeled by human endothelial cells (HUVEC) and fibroblasts modeled by human mesenchymal stem cells (MSCs). The concentration ranges selected for each drug and investigational agent were based upon clinically achievable concentrations if the clinical Cmax of the agent was known.
# Compounds. The drugs and investigational agents: pidnarulex (CX-5461; NSC782164), APTO-253 (NSC789042), BRACO-19 (NSC847499), peposertib (NSC802822), ceralasertib (NSC780249), elimusertib (NSC800525), camonsertib (NSC841442), AZD-1390 (NSC803789), olaparib (NSC753686), talazoparib (NSC767125), ART-558 (NSC835418), sotorasib (NSC818433), MRTX-1133 (NSC836407), SN-38 (NSC673596), topotecan (NSC609699), etoposide (NSC141540), doxorubicin (NSC123127), gemcitabine (NSC613327), 5-fluorouracil (NSC19893), paclitaxel (NSC125973), vemurafenib (NSC761431), panobinostat (NSC761190), R-306465 (JNJ-16241199; NSC773264), adavosertib (NSC754352), TP-3654 (NSC805149), carboplatin (NSC241240), KSQ-4279 (NSC840948), and staurosporine (NSC755774) were obtained from the National Cancer Institute (NCI) Developmental Therapeutics Program Chemical Repository (34). The FDA-approved anticancer drug set is available from the NCI Developmental Therapeutics Program. […] The stock solutions were prepared in dimethyl sulfoxide (DMSO, Sigma-Aldrich, St. Louis, MO, cat. D2650) at 800-fold the tested concentration and stored at -70 degrees C prior to their use. All drugs and investigational agents were tested over a range starting from a high concentration at or near the clinical Cmax and decreasing in half-log increments. If the clinical Cmax for an agent had not been determined, the highest concentration tested was 10 microM.
# 2.3 Cell Culture. All cells were maintained in an incubator at 37 degrees C and 5% CO2 with 95% humidity. The PDC lines were cultured according to standard operating procedures established by the NCI PDMR. All PDCs were thawed and cultured in Matrigel-coated flasks prepared with a working solution of 1X Ham's F-12 nutrient mix, without supplementation (Invitrogen, cat. 11765054), 100 U/mL penicillin-streptomycin (Invitrogen, cat. 15140122), and 2.5% Matrigel (Corning Inc., cat. 354248) for the first three passages. The 857933-349-R-J2-PDC line was cultured in 6C/Colon 1B media, which includes advanced DMEM/F-12 (Thermo Fisher Scientific, cat. 12634028), 10 mM HEPES (Thermo Fisher Scientific, cat. 15630080), 1X GlutaMAX supplement (Thermo Fisher Scientific, cat. 35050061), 0.1 mg/mL primocin (InvivoGen, cat. ant-pm-2), 10% defined fetal bovine serum, heat inactivated (HyClone Laboratories Inc., cat. SH30070.03HI), 50% L-WRN conditioned media (ATCC, cat. CRL-3276), 1.25 mM N-Acetyl-L-cysteine (Sigma-Aldrich, cat. A9165), 10 mM nicotinamide (Sigma-Aldrich, cat. N0636), 1X B-27 supplement (Thermo Fisher Scientific, cat. 17504044), 1X N-2 supplement (Thermo Fisher Scientific, cat. 17502048), 10 microM Y-27632 dihydrochloride (Tocris Bioscience, cat. 1254), and 50 ng/mL human EGF recombinant protein (Thermo Fisher Scientific, cat. PHG0311). The 485176-168-R4-J1-PDC line was cultured in Panc media, which includes all 6C/Colon 1B media components plus 100 ng/mL human FGF-10 (Thermo Fisher Scientific, cat. 100-26), 500 nM SB-431542 (Selleckchem, cat. S1067), and gastrin (Tocris, cat. 3006).
# […]
# [1] = second compound 0.0316 µM, first compound 0.0316 µM
# [2] = second compound 0.0316 µM, first compound 0.1 µM
# [3] = second compound 0.0316 µM, first compound 0.316 µM
# [4] = second compound 0.0316 µM, first compound 1 µM
# [5] = second compound 0.0316 µM, first compound 3.16 µM
# [6] = second compound 0.0316 µM, first compound 10 µM
# [7] = second compound 0.1 µM, first compound 0.0316 µM
# [8] = second compound 0.1 µM, first compound 0.1 µM
# [9] = second compound 0.1 µM, first compound 0.316 µM
# [10] = second compound 0.1 µM, first compound 1 µM
# [11] = second compound 0.1 µM, first compound 3.16 µM
# [12] = second compound 0.1 µM, first compound 10 µM
# [13] = second compound 0.316 µM, first compound 0.0316 µM
# [14] = second compound 0.316 µM, first compound 0.1 µM
# [15] = second compound 0.316 µM, first compound 0.316 µM
# [16] = second compound 0.316 µM, first compound 1 µM
# [17] = second compound 0.316 µM, first compound 3.16 µM
# [18] = second compound 0.316 µM, first compound 10 µM
# [19] = second compound 1 µM, first compound 0.0316 µM
# [20] = second compound 1 µM, first compound 0.1 µM
# [21] = second compound 1 µM, first compound 0.316 µM
# [22] = second compound 1 µM, first compound 1 µM
# [23] = second compound 1 µM, first compound 3.16 µM
# [24] = second compound 1 µM, first compound 10 µM
# [25] = second compound 3.16 µM, first compound 0.0316 µM
# [26] = second compound 3.16 µM, first compound 0.1 µM
# [27] = second compound 3.16 µM, first compound 0.316 µM
# [28] = second compound 3.16 µM, first compound 1 µM
# [29] = second compound 3.16 µM, first compound 3.16 µM
# [30] = second compound 3.16 µM, first compound 10 µM
# [31] = second compound 10 µM, first compound 0.0316 µM
# [32] = second compound 10 µM, first compound 0.1 µM
# [33] = second compound 10 µM, first compound 0.316 µM
# [34] = second compound 10 µM, first compound 1 µM
# [35] = second compound 10 µM, first compound 3.16 µM
# [36] = second compound 10 µM, first compound 10 µM
# 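Note: spheroids exposed to compounds for seven days before readout.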
smiles,measurement,setting,value
O=C(NO)c1cnc(N2CCN(S(=O)(=O)c3ccc4ccccc4c3)CC2)nc1 + Cc1cnc(CNC(=O)c2c(=O)c3ccc(N4CCCN(C)CC4)nc3n3c2sc2ccccc23)cn1,IC50,second compound 0.0316 µM,418 nM
same,IC50,second compound 0.1 µM,445 nM
same,IC50,second compound 0.316 µM,281 nM
same,IC50,second compound 1 µM,172 nM
same,IC50,second compound 3.16 µM,< 31.6 nM
same,IC50,second compound 10 µM,< 31.6 nM
same,"viability, T/C",[1],91.1%
same,"viability, T/C",[2],78.5%
same,"viability, T/C",[3],64.4%
same,"viability, T/C",[4],6.15%
same,"viability, T/C",[5],0.22%
same,"viability, T/C",[6],0.22%
same,"viability, T/C",[7],87.2%
same,"viability, T/C",[8],65.5%
same,"viability, T/C",[9],68.3%
same,"viability, T/C",[10],7.35%
same,"viability, T/C",[11],0.34%
same,"viability, T/C",[12],0.28%
same,"viability, T/C",[13],85.3%
same,"viability, T/C",[14],70.1%
same,"viability, T/C",[15],49.8%
same,"viability, T/C",[16],6.3%
same,"viability, T/C",[17],0.18%
same,"viability, T/C",[18],0.19%
same,"viability, T/C",[19],56.4%
same,"viability, T/C",[20],58.3%
same,"viability, T/C",[21],41.7%
same,"viability, T/C",[22],0.29%
same,"viability, T/C",[23],0.1%
same,"viability, T/C",[24],0.17%
same,"viability, T/C",[25],48.4%
same,"viability, T/C",[26],45.6%
same,"viability, T/C",[27],23.1%
same,"viability, T/C",[28],0.14%
same,"viability, T/C",[29],0.11%
same,"viability, T/C",[30],0.12%
same,"viability, T/C",[31],24.2%
same,"viability, T/C",[32],13.8%
same,"viability, T/C",[33],0.3%
same,"viability, T/C",[34],0.15%
same,"viability, T/C",[35],0.17%
same,"viability, T/C",[36],0.18%
O=c1[nH]cc(F)c(=O)[nH]1 + Cc1cnc(CNC(=O)c2c(=O)c3ccc(N4CCCN(C)CC4)nc3n3c2sc2ccccc23)cn1,IC50,second compound 0.0316 µM,> 10000 nM
same,IC50,second compound 0.1 µM,> 10000 nM
same,IC50,second compound 0.316 µM,> 10000 nM
same,IC50,second compound 1 µM,> 10000 nM
same,IC50,second compound 3.16 µM,< 31.6 nM
same,IC50,second compound 10 µM,< 31.6 nM
same,"viability, T/C",[1],108%
same,"viability, T/C",[2],70.6%
same,"viability, T/C",[3],70.8%
same,"viability, T/C",[4],69.7%
same,"viability, T/C",[5],76%
same,"viability, T/C",[6],105%
same,"viability, T/C",[7],94.2%
same,"viability, T/C",[8],79.4%
same,"viability, T/C",[9],72.4%
same,"viability, T/C",[10],74.9%
same,"viability, T/C",[11],94.2%
same,"viability, T/C",[12],97.5%
same,"viability, T/C",[13],83.6%
same,"viability, T/C",[14],67.5%
same,"viability, T/C",[15],80.9%
same,"viability, T/C",[16],67.9%
same,"viability, T/C",[17],86.4%
same,"viability, T/C",[18],85.8%
same,"viability, T/C",[19],77.8%
same,"viability, T/C",[20],58%
same,"viability, T/C",[21],63.8%
same,"viability, T/C",[22],71.4%
same,"viability, T/C",[23],80.1%
same,"viability, T/C",[24],77.6%
same,"viability, T/C",[25],44.9%
same,"viability, T/C",[26],53.1%
same,"viability, T/C",[27],59.9%
same,"viability, T/C",[28],45.3%
same,"viability, T/C",[29],72.2%
same,"viability, T/C",[30],54.3%
same,"viability, T/C",[31],28.3%
same,"viability, T/C",[32],54.2%
same,"viability, T/C",[33],48.8%
same,"viability, T/C",[34],43.8%
same,"viability, T/C",[35],54.6%
same,"viability, T/C",[36],49.9%

# Reference: PubChem BioAssay AID2060492 (Molecular Pharmacology Branch, DTP, NCI, 2025)
